The text below walks through data of US20240108634A1, “COMPOSITIONS AND METHODS FOR INHIBITING YAP” (The United States Government as represented by the …, priority 2021, published 2024).

The test system of experiment [1] is CTGF & Cyr61 expression. The experiment can be described thus: Real time RT-PCR of YAP-target genes CTGF and Cyr61 in GBM cells. It is filed as cell-based, human. The note with it: LN229 and GBM39 cells, 18 h. The procedure:
Levels of total YAP were determined via ELISA. […] Immunoprecipitates were immunoblotted for the indicated proteins. […] Cells were treated with the indicated concentrations of inhibitor for 18 h and mRNA extracted for real time RT-PCR analyses. Measurements were performed in quadruplicate and means and+S.D. are shown. […] Cells were treated with (+) or without (−) NSC682769 (100 nM, 18 h) and harvested and separated into cytoplasmic and nuclear cellular fractions. Cytoplasmic versus nuclear material was subsequently immunoblotted for the indicated proteins. […] Values in top right corner of panels correspond to the percentage of nuclear localized YAP. […]
Protein and mRNA analyses, immunoprecipitation, in vitro bead-coupled inhibitor binding assays and HPLC analyses. […] Antigen-antibody complexes were detected using appropriate horseradish peroxidase-conjugated secondary antibodies (GE Healthcare) and enhanced chemiluminescence (Amersham ECL Prime). […] For quantitative RT-PCR, extraction of RNA was performed using Trizol® (Life Technologies). Total RNA was then quantified and integrity assessed using an Agilent 2100 Bioanalyzer (Agilent Technology). […] SYBR® Green quantitative PCR (Millipore Sigma) was performed in triplicate in 96-well optical plates on an ABI Prism 7000 Sequence Detection System (Life Technologies) according to the manufacturer's instructions. […]

Experiment [2] concerns the target T1, total YAP (Homo sapiens, UniProt P46937).
T1 construct: endogenous in cells; host or cells: LN229
The experiment can be described thus: Total YAP ELISA in GBM cells. It is filed as cell-based. The procedure: Levels of total YAP were determined via ELISA. […] Immunoprecipitates were immunoblotted for the indicated proteins. […] Cells were treated with the indicated concentrations of inhibitor for 18 h and mRNA extracted for real time RT-PCR analyses. Measurements were performed in quadruplicate and means and+S.D. are shown. […] Cells were treated with (+) or without (−) NSC682769 (100 nM, 18 h) and harvested and separated into cytoplasmic and nuclear cellular fractions. Cytoplasmic versus nuclear material was subsequently immunoblotted for the indicated proteins. […] Values in top right corner of panels correspond to the percentage of nuclear localized YAP. Cells were grown on coverslips and treated with NSC682769. Cells were permeabilized and stained using primary antibody to YAP1 and FITC-conjugated secondary. Nuclei were stained with DAPI. Scale bar, 20 μm.
Surface plasmon resonance (SPR), ELISA, YAP-TEAD reporter activity, cellular fractionation, and immunofluorescence analyses. SPR experiments were carried out on a Nicoya OpenSPR™ instrument using immobilized YAP on a carboxyl-coated sensor. Binding was observed as the change in response units (RU) as analyte was injected at a flow rate of 10 μl/min at 25° C. TraceDrawer™ was used for kinetic analyses. The PathScan® total-YAP ELISA kit was obtained from Cell Signaling and used according to the manufacturer's instructions. YAP-TEAD reporter activity was determined as previously described (Kim N G, Gumbiner B M (2015) J Cell Biol 210: 503-515). HOP-flash contains multiple copies of wild-type TEAD-binding sites with a minimal promoter upstream of a luciferase reporter gene. Luciferase activity was measured via a luciferase assay system (Promega). Nuclear-cytoplasmic fractionation was performed according to Dignam et al. (Dignam J D, et al. (1983) Nucleic Acids Res 11: 1475-1489). Briefly, the buffers used were kept on ice and centrifugations were done at 4° C. with soft braking. After a single wash with PBS, cells were scraped with PBS (containing 1 mM DTT and 1× protease inhibitor) and harvested by centrifugation at 1000×g for 15 min. The cell pellet was gently resuspended with five times the volume of pellet with buffer A (10 mM HEPES, pH 7.9, 1.5 mM MgCl2, 10 mM KCl, 0.5 mM DTT, and 1× protease inhibitor) and incubated on ice for 15 min, followed by homogenization (Wheaton). Cell lysis was monitored by trypan blue staining. The cell lysate was spun at 1000×g for 5 min to collect the pellet as the nuclear fraction and the supernatant as the cytoplasmic fraction. […]
(In general: ELISA stands for enzyme-linked immunosorbent assay.)

Molecules are shown by their SMILES. Where two headings read alike, the source gives them in different places.

T1 sequence (P46937 whole entry): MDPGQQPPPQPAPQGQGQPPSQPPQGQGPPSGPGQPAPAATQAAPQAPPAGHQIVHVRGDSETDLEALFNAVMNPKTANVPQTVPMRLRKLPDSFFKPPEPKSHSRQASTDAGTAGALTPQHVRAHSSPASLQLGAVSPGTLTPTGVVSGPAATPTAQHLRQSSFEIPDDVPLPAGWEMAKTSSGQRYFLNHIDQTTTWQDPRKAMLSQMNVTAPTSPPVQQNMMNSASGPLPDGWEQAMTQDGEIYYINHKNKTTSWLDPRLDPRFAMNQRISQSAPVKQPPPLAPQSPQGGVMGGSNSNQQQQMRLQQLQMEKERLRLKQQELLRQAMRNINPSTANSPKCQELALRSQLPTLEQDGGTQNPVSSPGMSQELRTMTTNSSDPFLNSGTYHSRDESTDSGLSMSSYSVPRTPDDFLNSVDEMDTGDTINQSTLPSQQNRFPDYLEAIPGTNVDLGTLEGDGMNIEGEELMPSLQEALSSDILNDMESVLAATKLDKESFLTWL

With `COc1ccc(-c2cc(-c3ccccc3)nc3c2CC(=O)Nc2ccccc2-3)cc1OC` [NSC682769], the “CTGF and Cyr61 transcripts” value in experiment [1] is on record as “downregulated”. Also, the DC50 is 5.1 nM in experiment [2] (GBM39 cells, read-out: IC50, inhibition of total YAP (ELISA)); 11.8 nM in experiment [2] (LN229 cells, read-out: IC50, inhibition of total YAP (ELISA)); 11.8 nM in experiment [2] (LN229 cells, read-out: IC50 for YAP (ELISA)); 5.1 nM in experiment [2] (patient-derived GBM39 cells, read-out: IC50 for YAP (ELISA)).
